Calls of active or inactive are those of the source. No cut-off for these calls is given here.
Columns and labels:
NCI-H1299 [1] = test: Downregulation of VE-Cadherin protein expression in human NCI-H1299 cells at 5 to 15 nM incubated for 24 hrs by western blot analysis; assay type: functional, cell-based; conditions: dose 5-15 nM
NCI-H1299 [2] = test: Downregulation of MMP9 mRNA expression in human NCI-H1299 cells at 5 to 15 nM incubated for 24 hrs by qPCR analysis; assay type: functional, cell-based; conditions: dose 5-15 nM
[3] = target: Vascular endothelial growth factor receptor 2 (Homo sapiens) (UniProt P35968); test: Inhibition of VEGF-A-mediated VEGFR2 signaling pathway in human HUVEC cells assessed as reduction in FAK phosphorylation at Tyr397 residue at 5 to 15 nM incubated for 36 hrs by western blot analysis; assay type: cell-based; conditions: dose 5-15 nM
Vascular endothelial growth factor receptor 2 (Homo sapiens), sequence (P35968 whole entry): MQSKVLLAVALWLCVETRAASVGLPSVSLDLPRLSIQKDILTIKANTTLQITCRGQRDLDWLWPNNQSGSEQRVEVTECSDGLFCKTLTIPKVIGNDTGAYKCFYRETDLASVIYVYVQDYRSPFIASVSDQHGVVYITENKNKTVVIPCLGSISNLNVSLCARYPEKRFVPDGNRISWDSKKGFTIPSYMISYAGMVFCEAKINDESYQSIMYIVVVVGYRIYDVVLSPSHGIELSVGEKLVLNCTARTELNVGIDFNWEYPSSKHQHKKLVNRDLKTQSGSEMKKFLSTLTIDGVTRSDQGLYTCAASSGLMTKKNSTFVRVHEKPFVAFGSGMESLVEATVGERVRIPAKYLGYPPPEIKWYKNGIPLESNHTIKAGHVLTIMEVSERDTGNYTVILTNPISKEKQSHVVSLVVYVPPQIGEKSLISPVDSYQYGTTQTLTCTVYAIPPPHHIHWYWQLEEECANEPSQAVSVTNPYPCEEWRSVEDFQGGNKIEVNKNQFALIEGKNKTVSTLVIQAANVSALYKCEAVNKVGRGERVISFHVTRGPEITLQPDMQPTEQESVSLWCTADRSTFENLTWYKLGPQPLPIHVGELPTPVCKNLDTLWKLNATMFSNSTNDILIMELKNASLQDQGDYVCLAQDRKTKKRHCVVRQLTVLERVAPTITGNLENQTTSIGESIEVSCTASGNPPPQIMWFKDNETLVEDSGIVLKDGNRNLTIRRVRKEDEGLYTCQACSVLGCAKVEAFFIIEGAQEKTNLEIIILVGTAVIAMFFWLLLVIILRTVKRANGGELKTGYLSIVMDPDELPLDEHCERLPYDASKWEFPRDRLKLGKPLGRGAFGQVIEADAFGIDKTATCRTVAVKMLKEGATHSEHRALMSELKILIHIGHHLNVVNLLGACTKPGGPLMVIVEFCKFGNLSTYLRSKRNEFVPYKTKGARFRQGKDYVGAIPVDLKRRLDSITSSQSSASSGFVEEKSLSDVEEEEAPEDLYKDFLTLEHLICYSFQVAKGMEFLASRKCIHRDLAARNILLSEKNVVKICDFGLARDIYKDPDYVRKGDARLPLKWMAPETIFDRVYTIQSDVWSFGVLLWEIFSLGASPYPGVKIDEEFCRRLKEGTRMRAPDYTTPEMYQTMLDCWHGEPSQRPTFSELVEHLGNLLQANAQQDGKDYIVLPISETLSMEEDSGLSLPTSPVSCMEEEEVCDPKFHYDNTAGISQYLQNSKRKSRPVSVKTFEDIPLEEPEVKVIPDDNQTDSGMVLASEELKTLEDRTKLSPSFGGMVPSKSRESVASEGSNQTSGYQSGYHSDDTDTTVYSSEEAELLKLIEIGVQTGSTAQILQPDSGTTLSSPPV

NCI-H1299 [4] = test: Upregulation of E-Cadherin mRNA expression in human NCI-H1299 cells at 5 to 15 nM incubated for 24 hrs by qPCR analysis; assay type: functional, cell-based; conditions: dose 5-15 nM
HMEC-1 [5] = test: Inhibition of VEGF-A secretion in human HMEC-1 cells incubated for 36 hrs by ELISA; assay type: functional, cell-based; conditions: dose 5-15 nM
NCI-H1299 [6] = test: Inhibition of vasculogenic-mimicry in human NCI-H1299 cells assessed as inhibition of cell migration at 5 to 15 nM measured after 24 hrs by Transwell migration assay; assay type: functional, cell-based; conditions: dose 5-15 nM
Mus musculus [7] = test: Inhibition of tumor angiogenesis in BALB/c nude mouse xenografted with human NCI-H1299 cells assessed as reduction in […] cells in tumor at 1.5 mg/kg, ip administered every other day for 20 days by immunohistochemical analysis; assay type: functional, organism-based; conditions: time 20.0 day
NCI-H1299 [8] = test: Antitumor activity against human NCI-H1299 cells xenografted in BALB/c nude mouse assessed as reduction in tumor weight at 0.75 to 1.5 mg/kg, ip administered every other day for 20 days; assay type: functional, organism-based; conditions: dose 0.75-1.5 mg/kg, time 20.0 day
NCI-H1299 [9] = test: Inhibition of VEGF-A secretion in human NCI-H1299 cells at 5 to 15 nM incubated for 24 hrs by ELISA; assay type: functional, cell-based; conditions: dose 5-15 nM
HUVEC [10] = test: Antiangiogenic activity against human HUVEC cells assessed as inhibition of capillary tube-like structure formation incubated for 6 hrs by Matrigel based analysis; assay type: functional, cell-based; conditions: dose 5-20 nM
HUVEC [11] = test: Antiangiogenic activity against human HUVEC cells assessed as inhibition of cell migration measured after 24 hrs by Transwell migration assay; assay type: functional, cell-based; conditions: dose 5-15 nM
NCI-H1299 [12] = test: Inhibition of vasculogenic-mimicry in human NCI-H1299 cells assessed as inhibition of capillary-like network formation by measuring reduction in tube number and vascular branches at 5 to 15 nM measured after 6 hrs by Matrigel-based analysis; assay type: functional, cell-based; conditions: dose 5-15 nM
[13] = target: Vascular endothelial growth factor receptor 2 (Homo sapiens) (UniProt P35968); test: Inhibition of VEGF-A-mediated VEGFR2 signaling pathway in human HMEC-1 cells assessed as reduction in VEGFR2 phosphorylation at Tyr1175 residue at 5 to 15 nM incubated for 36 hrs by western blot analysis; assay type: cell-based; conditions: dose 5-15 nM
HUVEC [14] = test: Antiangiogenic activity against human HUVEC cells assessed as inhibition of cell invasion measured after 24 hrs by Transwell invasion assay; assay type: functional, cell-based; conditions: dose 5-15 nM
NCI-H1299 [15] = test: Downregulation of VE-Cadherin mRNA expression in human NCI-H1299 cells at 5 to 15 nM incubated for 24 hrs by qPCR analysis; assay type: functional, cell-based; conditions: dose 5-15 nM
[16] = target: Vascular endothelial growth factor receptor 2 (Homo sapiens) (UniProt P35968); test: Inhibition of VEGF-A-mediated VEGFR2 signaling pathway in human HUVEC cells assessed as reduction in mTOR phosphorylation at Ser2448 residue at 5 to 15 nM incubated for 36 hrs by western blot analysis; assay type: cell-based; conditions: dose 5-15 nM
[17] = target: Vascular endothelial growth factor receptor 2 (Homo sapiens) (UniProt P35968); test: Inhibition of VEGF-A-mediated VEGFR2 signaling pathway in human HUVEC cells assessed as reduction in VEGFR2 phosphorylation at Tyr1175 residue at 5 to 15 nM incubated for 36 hrs by western blot analysis; assay type: cell-based; conditions: dose 5-15 nM
NCI-H1299 [18] = test: Downregulation of Snail protein expression in human NCI-H1299 cells at 5 to 15 nM incubated for 24 hrs by western blot analysis; assay type: functional, cell-based; conditions: dose 5-15 nM
NCI-H1299 [19] = test: Downregulation of MMP9 protein expression in human NCI-H1299 cells at 5 to 15 nM incubated for 24 hrs by western blot analysis; assay type: functional, cell-based; conditions: dose 5-15 nM
Mus musculus [20] = test: Inhibition of vasculogenic-mimicry in BALB/c nude mouse xenografted with human NCI-H1299 cells assessed as reduction in pericyte coverage around CD31-positive endothelial blood vessels at 0.75 to 1.5 mg/kg, ip administered every other day for […] by immunofluorescence analysis; assay type: functional, organism-based; conditions: dose 0.75-1.5 mg/kg
NCI-H1299 [21] = test: Antitumor activity against human NCI-H1299 cells xenografted in BALB/c nude mouse assessed as tumor volume at 0.75 mg/kg, ip administered every other day for 20 days by vernier caliper analysis (reference value: 1206.46 +/-332.44 mm3); assay type: functional; conditions: time 20 day
NCI-H1299 [22] = test: Downregulation of N-Cadherin mRNA expression in human NCI-H1299 cells at 5 to 15 nM incubated for 24 hrs by qPCR analysis; assay type: functional, cell-based; conditions: dose 5-15 nM
HMEC-1 [23] = test: Downregulation of VEGFR2 protein expression in human HMEC-1 cells at 5 to 15 nM incubated for 36 hrs by western blot analysis; assay type: functional, cell-based; conditions: dose 5-15 nM
Rattus norvegicus = species on record: Rattus norvegicus; test: Ex vivo antiangiogenic activity against Sprague-Dawley rat aorta rings assessed as reduction in microvessel sprouting from aortic rings by measuring reduction in total microvessel lengths measured after 6 days by microscopic analysis; assay type: functional; conditions: dose 5-20 nM, time 6.0 day
HMEC-1 [24] = test: Downregulation of VEGF-A protein expression in human HMEC-1 cells at 5 to 15 nM incubated for 36 hrs by western blot analysis; assay type: functional, cell-based; conditions: dose 5-15 nM
HMEC-1 [25] = test: Antiangiogenic activity against human HMEC-1 cells assessed as inhibition of cell migration measured after 8 hrs by scratch wound healing assay; assay type: functional, cell-based; conditions: dose 5-15 nM
NCI-H1299 [26] = test: Downregulation of N-Cadherin protein expression in human NCI-H1299 cells at 5 to 15 nM incubated for 24 hrs by western blot analysis; assay type: functional, cell-based; conditions: dose 5-15 nM
[27] = target: Vascular endothelial growth factor receptor 2 (Homo sapiens) (UniProt P35968); test: Inhibition of VEGF-A-mediated VEGF-R2 signaling pathway in human NCI-H1299 cells assessed as reduction in VEGF-R2 phosphorylation at Tyr1175 residue at 5 to 15 nM by western blot analysis; assay type: cell-based; conditions: dose 5-15 nM
HMEC-1 [28] = test: Cytotoxicity against human HMEC-1 cells assessed as reduction in cell proliferation upto 25 nM measured after 48 hrs by CCK8 assay; assay type: toxicity, cell-based; conditions: hmec-1, 48 h, 0.025 µM
HBVP = test: Inhibition of PDGF-BB protein expression in human HBVP cells at 5 to 15 nM incubated for 24 hrs by western blot analysis; assay type: functional, cell-based; conditions: dose 5-15 nM
HMEC-1 [29] = test: Antiangiogenic activity against human HMEC-1 cells assessed as inhibition of capillary tube-like structure formation incubated for 6 hrs by Matrigel based analysis; assay type: functional, cell-based; conditions: dose 5-20 nM
HUVEC [30] = test: Downregulation of VEGF-A protein expression in human HUVEC cells at 5 to 15 nM incubated for 36 hrs by western blot analysis; assay type: functional, cell-based; conditions: dose 5-15 nM
NCI-H1299 [31] = test: Inhibition of vasculogenic-mimicry in human NCI-H1299 cells assessed as inhibition of cell invasion at 5 to 15 nM measured after 24 hrs by Transwell invasion assay; assay type: functional, cell-based; conditions: dose 5-15 nM
HMEC-1 [32] = test: Antiangiogenic activity against human HMEC-1 cells assessed as inhibition of cell migration measured after 24 hrs by Transwell migration assay; assay type: functional, cell-based; conditions: dose 5-15 nM
Mus musculus [33] = test: Inhibition of tumor angiogenesis in BALB/c nude mouse xenografted with human NCI-H1299 cells assessed as reduction in microvessel density of the tumor at 0.75 to 1.5 mg/kg, ip administered every other day for 20 days by CD31 staining based immunohistochemical analysis; assay type: functional, organism-based; conditions: dose 0.75-1.5 mg/kg, time 20.0 day

In the case of COc1ccc(C[C@@H]2NC(=O)[C@@]34OC(=O)O/C=C/[C@@](C)(O)C(=O)[C@@H](C)C/C=C/[C@H]3[C@H](O)[C@](C)(O)[C@@H](C)[C@@H]24)cc1 [SCOPARASIN B], the inhibition (NCI-H1299 [1]) is reported as “Active”, the inhibition (NCI-H1299 [2]) is reported as “Active” and the inhibition [3] is reported as “Active”. The Activity (NCI-H1299 [4]) was “Active”, the inhibition (HMEC-1 [5]) was “Dose-Dependent Effect” and the inhibition (NCI-H1299 [6]) was “Active”. For the same molecule, the inhibition (Mus musculus [7]) was “Active”, the Activity (NCI-H1299 [8]) was “Active” and the inhibition (NCI-H1299 [9]) was “Active”. The Activity (HUVEC [10]) was “Dose-Dependent Effect”, the Activity (HUVEC [11]) was “Dose-Dependent Effect” and the inhibition (NCI-H1299 [12]) was “Active”. The inhibition [13] was “Active”, the Activity (HUVEC [14]) was “Dose-Dependent Effect” and the inhibition (NCI-H1299 [15]) was “Active”. The inhibition [16] was “Active”, the inhibition [17] was “Active” and the inhibition (NCI-H1299 [18]) was “Active”. For the same molecule, the inhibition (NCI-H1299 [19]) was “Active”, the inhibition (Mus musculus [20]) was “Active” and the Activity (NCI-H1299 [21]) was 559.86 mm3. For the same molecule, the inhibition (NCI-H1299 [22]) was “Active”, the inhibition (HMEC-1 [23]) was “inactive” and the Activity (Rattus norvegicus) was “Dose-Dependent Effect”. The inhibition (HMEC-1 [24]) was “Active”, the Activity (HMEC-1 [25]) was “Dose-Dependent Effect” and the inhibition (NCI-H1299 [26]) was “Active”. The inhibition [27] was “Active”, the Activity (HMEC-1 [28]) was “Non-Toxic” and the inhibition (HBVP) was “Active”. The Activity (HMEC-1 [29]) was “Dose-Dependent Effect”, the inhibition (HUVEC [30]) was “Active” and the inhibition (NCI-H1299 [31]) was “Active”. The Activity (HMEC-1 [32]) was “Dose-Dependent Effect” and the inhibition (Mus musculus [33]) was “Active”.

Reference: ChEMBL document CHEMBL5226385, “The Antiangiogenic and Antitumor Effects of Scoparasin B in Non-Small-Cell Lung Cancer” (J Nat Prod, 2023)
